Assay results reported in paper PMC11898701, “Evaluating Therapeutic Efficacy of the Vascular Disrupting Agent OXi8007 Against Kidney Cancer in Mice” (Cancers, 2025).

Key:
[1] = system: subcutaneous MDA-MB-231 tumors; set-up: method as in earlier work; conditions: cited from earlier work
Ewing sarcoma = system: Ewing sarcoma; set-up: method as in PMID 19136249; conditions: 200 mg/kg twice weekly; cited from earlier work
[2] = system: orthotopic Renca-luc tumors; test: Long-term therapy with OXi8007 and/or cabozantinib; type: in vivo, mouse
Method: (§1) OXi8007, synthesized by the Pinney Laboratory using published procedures, was dissolved in saline, verified to be in the pH range 7.3 to 7.5, and dosed at 250 mg/kg (IP). Cabozantinib (in PEG400 and ultrapure H2O (Milli-Q)) was administered at 3 mg/kg by oral gavage. Anti-PD-1 (10 mg/kg, Bio X Cell, Lebanon, NH, USA) and anti-CTLA-4 (5 mg/kg, Bio X Cell, Lebanon, NH) solutions were administered (IP) on the day before OXi8007 […].
We evaluated the longitudinal effects of OXi8007 alone and in combination with drugs currently favored for treating kidney cancer. For Renca-luc tumor-bearing mice, BLI was performed at least once a week to estimate tumor size, and mice were weighed weekly to adjust the dose as needed. Two treatment cohorts examined syngeneic orthotopic Renca-luc tumors in male BALB/c mice. Treatment started when the tumors reached about 1 × 10^6 photons/s peak total flux on BLI. The first cohort examined OXi8007 with cabozantinib. Mice were divided into four groups. Mice were assigned to groups as soon as there were sufficient to add the same numbers of animals to each group. The specific assignment was defined using the random number function in Excel. […] The second cohort was treated with CKIs and OXi8007 using four groups: Group 5 (OXi8007 + anti-PD-1 (10 mg/kg) + anti-CTLA-4 (5 mg/kg); n = 4), Group 6 (saline + anti-PD-1+ anti-CTLA-4; n = 3), Group 7 (saline + anti-PD-1; n = 3), and Group 8 (saline + anti-CTLA-4; n = 4). CKI antibodies were administered thrice weekly (M, W, F) for the first two weeks after the first treatment with OXi8007, which was administered twice weekly. […] Initial tumor growth was confirmed by palpation, and the mice were assigned to groups such that the first mouse with a confirmed tumor was assigned to Group 5, next to Group 6, etc., ensuring that all groups had both faster- and slower-growing tumors. […] Tumor size (BLI signal) and mouse body weights were compared using an ANOVA and multiple comparisons at a significance level of p < 0.05. Kaplan–Meier survival curves were compared using a non-parametric log-rank test using SAS software (SAS Institute Inc., SAS Viya for learners 4, Cary, NC, USA).

[3] = system: orthotopic XP258 human tumor xenografts; test: Long-term therapy of XP258 human tumor xenografts; type: in vivo, mouse
From the text: The animal procedures were approved by the UT Southwestern Medical Center Institutional Animal Care and Use Committee under APNs 2017-102152 and 2018-102344-CORE. Renca-luc orthotopic tumors were induced by inserting tumor tissue (~1 mm^3) harvested from a donor mouse into the right kidney of syngeneic BALB/c mice (age 8 weeks, male and female; Envigo, Indianapolis, IN, USA), as described previously. Orthotopic XP258 tumors (derived from a patient with pT3aN0M1 clear cell RCC) were obtained from the UT Southwestern Kidney Cancer SPORE [53, 54] and maintained by serial passage. Tumors were induced by inserting tumor tissues from a donor tumor into the left kidney capsule of female NOD/SCID mice (Envigo).
as §1
We evaluated the longitudinal effects of OXi8007 alone and in combination with drugs currently favored for treating kidney cancer. For Renca-luc tumor-bearing mice, BLI was performed at least once a week to estimate tumor size, and mice were weighed weekly to adjust the dose as needed. Two treatment cohorts examined syngeneic orthotopic Renca-luc tumors in male BALB/c mice. Treatment started when the tumors reached about 1 × 10^6 photons/s peak total flux on BLI. The first cohort examined OXi8007 with cabozantinib. Mice were divided into four groups. Mice were assigned to groups as soon as there were sufficient to add the same numbers of animals to each group. The specific assignment was defined using the random number function in Excel. As such, each group included both faster- and slower-growing tumors. […]

For `COc1ccc2c(C(=O)c3cc(OC)c(OC)c(OC)c3)c(-c3ccc(OC)c(OP(=O)(O)O)c3)[nH]c2c1` [OXi8007], the Tumor growth delay [1] is listed as “significant tumor growth delay”, the Tumor growth delay (Ewing sarcoma) is listed as “no tumor growth delay” and the “Toxicity in adult mice” value ([2]; 250 mg/kg IP twice weekly up to 7 weeks) is listed as “no overt toxicity”. The “Body weight at week 7 versus baseline” value ([2]; Renca-luc BALB/c mice, 250 mg/kg IP twice weekly) was “significant loss in body weight”, the “Body weight loss versus pre-treatment baseline” value ([2]; Renca-luc BALB/c mice, OXi8007 alone) was ~ 11% and the “Tumor growth delay (BLI)” value ([2]; Renca-luc, versus control) was “no significant growth delay”. The “Overall survival versus control” value ([2]; Renca-luc, 250 mg/kg IP twice weekly, log-rank p = 0.053) was “no overall survival benefit”, the “Tumor weights at sacrifice” value ([3]; XP258, long-term therapy, monotherapy or combined) was “much smaller tumors” and the Survival versus controls ([3]; XP258 in NOD/SCID mice, OXi8007 250 mg/kg IP twice weekly, cabozantinib 3 mg/kg oral daily) was “significantly enhanced survival”.
